# Data published in patent US7794987B2, “Method for treating central neuropathic pain” (UCB Pharma GmbH, priority 2003, dated 2010).
# What was measured:
# spinally injured rats [1] = assay: Single dose of SPM 927 on allodynia-like behaviours in spinally injured rats (von Frey hairs, brushing, cold); assay type: in vivo, Sprague-Dawley rats; details: intraperitoneally
# Procedure: (§1) Male and female Sprague-Dawley rats (Möllegard, Denmark) weighing 200-250 g at the start of the experiments were used.
# (§2) Ischemic spinal cord injury was produced in female rats according to methods described previously (Xu et al., 1992). In brief, the rats were anesthetized with chloral hydrate (300 mg/kg, i.p.) and a midline incision was made on the skin overlying vertebral segments T12-L1. The animals were positioned beneath an argon laser beam and irradiated for 10 min with the beam directed towards vertebral segment T12 or T13 (spinal segments L3-5). Immediately prior to and 5 min after the start of the irradiation, erythrosin B (Red No 3, Aldrich-Chemie, Steinheim, Germany) dissolved in 0.9% saline was injected intravenously through the tail vein at a dose of 32.5 mg/kg. A tunable argon ion laser (Innova model 70, Coherent Laser Product Division, Palo Alto, Calif.) operating at 514 nm was used. The average beam output power was 160 mW. The beam covered the entire width of the vertebra and the length of the beam was 1-2 mm. After irradiation, the wound was closed in layers and the rats were allowed to recover. The bladder was emptied manually for 1 week.
# (§3) The vocalization threshold to graded mechanical touch/pressure stimuli were tested with von Frey hairs. During testing the rats were gently restrained in a standing position and the von Frey hair was pushed onto the skin until the filament became bent. The frequency of stimulation was about 1/s and at each intensity the stimulus was applied 5-10 times. The intensity of stimulation which induced consistent vocalization (>75% response rate) was considered as pain threshold.
# (§4) The response of rats to brushing stimulation was tested with the blunt point of a pencil gently stroking the skin on the trunk in a rostro-caudal direction. The frequency of the stimulation was about 1/s and responses were graded with a score of 0=no observable response; 1=transient vocalization and moderate effort to avoid probe; 2=consistent vocalization and aversive reactions and 3=sustained and prolonged vocalization and aggressive behaviours.
# (§5) Response to cold was tested with ethyl chloride spray applied to the shaved allodynic skin area. The response was graded with a score of 0=no observable response; 1=localized response (skin twitch and contraction), no vocalization; 2=transient vocalization, moderate struggle and 3=sustained vocalization and aggression.
# (§6) SPM 927 was dissolved in physiological saline and injected intraperitoneally. The data for von Frey hairs, brushing and cold are expressed as median±median absolute deviation (M.A.D.) and analysed with Wilcoxon signed-ranks test or paired t-test.
# spinally injured rats [2] = assay: Repeated administration of SPM 927 in spinally injured rats (von Frey hairs, brushing, cold); assay type: in vivo, Sprague-Dawley rats; details: 20 mg/kg twice a day
# Procedure: as §1, §2, §3, §4, §5, §6
# The animals were injected with 20 mg/kg SPM 927 twice a day. The pre-drug response and the response 1 h after injection were assessed in the morning session. […] The normalization of basal sensitivity lasted at least 8 days without signs of tolerance.
smiles,measurement,setting,value
"COC[C@@H](NC(C)=O)C(=O)NCc1ccccc1 [SPM 927, (R)-2-acetamide-N-benzyl-3-methoxypropionamide]",effect on mechanical and cold allodynia,spinally injured rats [1]; 10 mg/kg,no effect
same,effect on mechanical and cold allodynia,spinally injured rats [1]; 15 mg/kg,"partially alleviated mechanical and cold allodynia in the majority, but not all, rats"
same,effect on brushing and cold,"spinally injured rats [1]; 15 mg/kg, FIG. 1B, C",significant effect
same,increase in threshold to stimulation with von Frey hairs,"spinally injured rats [1]; 15 mg/kg, FIG. 1a","significant, but did not return to normal level"
same,duration of complete reversal of mechanical and cold allodynia,spinally injured rats [1]; 20 mg/kg,about 2 h
same,effect on mechanical and cold allodynia,spinally injured rats [1]; 20 mg/kg,completely reversed mechanical and cold allodynia in all rats
same,vocalization threshold to von Frey hair stimulation 1 h after injection,spinally injured rats [2]; days 1-3,increase in vocalization threshold
same,allodynia to stimulation with von Frey hairs and cold after discontinuation,spinally injured rats [2]; discontinued after day 7,reappeared on day 9
same,effect on brush stimulation after discontinuation,spinally injured rats [2]; discontinued after day 7,maintained up to day 11
same,pre-drug response to von Frey hair stimulation,spinally injured rats [2]; FIG. 2A,normalized on day 4
same,baseline responses to brushing and cold,"spinally injured rats [2]; FIG. 2B, 2C",normalized from day 2 to day 6 respectively
same,duration of normalization of basal sensitivity,spinally injured rats [2]; without signs of tolerance,at least 8 days
